{
  "source": "patent US20130253179A1",
  "about": "“Functionalization Processes and Reactants Used in Such Processes Using an Isatoic Anhydride or a Derivative Thereof, Biological Molecules Thus Treated and Kits” (priority 2010, published 2013)",
  "key": {"[1]": {"system": "ODN with 53 bases", "assay": "RNA vs DNA chemoselectivity: functionalisation of an ODN with 53 bases", "assay_type": "biochemical", "conditions": "compound 30 mM, DMSO/TEAAc buffer 25/75 (250 mM pH 7), 1 h at 65° C.", "method": "After precipitation with acetone and hydrolysis with nuclease P1 and alkaline phosphatase, the hydrolysed fragments are analysed by LC-MS, as described in example 3. An example of the chromatograms monitoring the reaction of ODN or ORN with compound 13 is shown in FIG. 9, in which graphs A, B and C respectively represent ORN, ORN functionalised with compound 13 and precipitated, and ORN functionalised with 13, precipitated and hydrolysed. Graphs D, E and F represent the same thing, but with ODN."}, "[2]": {"system": "model oligoribonucleotide (ORN) with 27 bases", "assay": "Functionalisation of a model ORN with 27 bases: functionalisation rate and regiospecificity by HPLC/LC-MS after nuclease P1/alkaline phosphatase hydrolysis", "assay_type": "biochemical", "conditions": "for Fr (corrected functionalisation rate): ORN 8 nmol; for Fr (corrected functionalisation rate) / External/internal regiospecificity (uncorrected ratio of areas acylated mononucleosides / acylated dinucleotides): compound 30 mM, 1 h at 65° C., 250 mM TEAAc pH 7, 25% DMSO", "description": "For this purpose, a fixed quantity of ORN is reacted with an isatoic anhydride derivative conjugated to a molecule of interest (Cy3 IA Me (13)), under various temperature conditions, duration conditions, reaction medium conditions, etc. HPLC monitoring of the reaction at 260 nm makes it possible to detect the disappearance of the peak corresponding to the initial ORN and the appearance of peaks corresponding to acylated ORN. These products have a greater retention time and have an absorption spectrum corresponding to both that of ORN and that of the fluorescent label.\nHowever, for greater precision on the functionalisation site and to precisely evaluate the functionalisation rate (Fr), the ORN population (labelled and unlabelled) is separated from the excess label by precipitation with acetone/lithium perchlorate or by gel permeation (NAP 5™, GE Health Care. Then the ORNs thus obtained are submitted to hydrolysis with the nuclease P1 (Aldrich, Saint Louis, USA) and with the alkaline phosphatase (Aldrich, Saint Louis, USA), in order to hydrolyse the phosphate diester bonds of ORN.\nThe ORN functionalisation rate (Fr) is evaluated by measuring: • the area corresponding to the terminal mononucleoside adducts (functionalised at 2′ and at 3′) and the area corresponding to the acylated dinucleosides (functionalised internally on 2′OH) • compared to the area of the peaks corresponding to the four ribonucleosides.\nThe internal/external regiospecificity of the acylation is evaluated by measuring the relative proportion of the areas corresponding to the: • end mono-nucleotides acylated at 2′ and at 3′ • and di-nucleotides acylated internally on 2′OH • which are easily detectable by HPLC.\nThe mixture is incubated for 60 minutes at 65° C. in an oven on a rack which is temperature-balanced in advance. An HPLC injection (conditions 3) makes it possible to monitor a formation of a certain quantity of acylated ORN as described in FIG. 6. To eliminate the salts and the excess label, the mixture is then purified on Sephadex NAP 5 gel (GE Health Care, Uppsala, Sweden)) and/or triple precipitation in 1.2 mL of a 180 mM Acetone/LiClO4 75/25 mixture. To finish, the pellet is dried with acetone and is evaporated with the centrifugal evaporator (RCT 60, Jouan, St Herblain, France). The residue is then taken up in 33 μL of a H2O/DMSO 85/15 solution and an HPLC injection (conditions 3) is performed in order to verify the proper elimination of the label. There is added to the mixture 2 μL of nuclease P1 (ref.: N8630 Sigma-Aldrich, St Louis, USA) in 1 U/μl solution in its buffer: 20 mM sodium acetate pH 5.5; 1 mM ZnCl2; 50 mM NaCl and 1 μL of 7 u/μl alkaline phosphatase in water (Ref. P7923-2KU Sigma-Aldrich, St Louis, USA). The medium is left at ambient temperature for 4 to 6 hours. It is then injected into HPLC (conditions 3) in order to verify the total hydrolysis of the ORN and in order to analyse the nature of the fragments obtained in accordance with what was described above and as described in FIG. 6.\nThe functionalisation rate is evaluated with UV at 260 nm by integration of the clusters corresponding to the acylated dinucleotides and to the acylated nucleosides) relative to the clusters corresponding to the four ribonucleosides. The ratio of the population of acylated dinucleotides to the population of acylated nucleosides is evaluated in the same way in order to evaluate the percentage of functionalisation on the 3′ terminal end.\nThe functionalisation rate values, presented within the framework of this invention, take into account the correction factor which must be applied according to the molar extinction coefficient at 260 nm of each of the nucleosides and according to whether they are nucleosides or dinucleotides. […]"}, "[3]": {"conditions": "FIG. 6 graph D, share of functionalised adducts"}},
  "data": [
    {"smiles": "Cn1c(=O)oc(=O)c2cc(NC(=O)CCSSCCNC(=O)CCOCCOCCOCCOCCNC(=O)CCCCC3SCC4NC(=O)NC43)ccc21", "note": "(centres unmarked) [5Biot PEG4 SS IA Me 24]", "values": [
      {"measurement": "corrected functionalisation rate of the ODN", "setting": "[1]", "result": 0.1, "unit": "%"},
      {"measurement": "Fr (corrected functionalisation rate)", "setting": "[2]", "result": 2.8, "unit": "%"},
      {"measurement": "External/internal regiospecificity (uncorrected ratio of areas acylated mononucleosides / acylated dinucleotides)", "setting": "[2]", "result": "62/38"}
    ]},
    {"smiles": "CCN1/C(=C\\C=C\\C2=[N+](CCCCCC(=O)Nc3ccc4c(c3)c(=O)oc(=O)n4C)c3ccc(S(=O)(=O)[O-])cc3C2(C)C)C(C)(C)c2cc(S(=O)(=O)[O-])ccc21.[K+]", "note": "[Cy3 IA Me 13, 1-methyl 5-Cy3-isatoic anhydride]", "values": [
      {"measurement": "corrected functionalisation rate of the ODN", "setting": "[1]", "result": 0.1, "unit": "%"},
      {"measurement": "acylated dinucleotides (peak 1)", "setting": "[2]; [3]", "result": 42, "unit": "%"},
      {"measurement": "nucleosides acylated at 2′ or at 3′ (peaks 2 and 3)", "setting": "[2]; [3]", "result": 58, "unit": "%"},
      {"measurement": "Fr (corrected functionalisation rate)", "setting": "[2]", "result": 4.5, "unit": "%"},
      {"measurement": "Fr (corrected functionalisation rate)", "setting": "[2]; listed as 13", "result": 4.5, "unit": "%"},
      {"measurement": "Fr (corrected functionalisation rate)", "setting": "[2]; listed as Cy3 IA ME (13)", "result": 4.2, "unit": "%"},
      {"measurement": "corrected functionalisation rate", "setting": "[2]; compound 15 mM, protocol of example 3", "result": 2.6, "unit": "%"},
      {"measurement": "External/internal regiospecificity (uncorrected ratio of areas acylated mononucleosides / acylated dinucleotides)", "setting": "[2]", "result": "58/42"}
    ]}
  ]
}
